Experimental findings from US11110117B2, “Skin preparation composition for external use containing complex hyaluronic acid” (J2KBIO CO., LTD., priority 2019, dated 2021) are described below.

One test has as its system MMP-1. The test can be described thus: MMP-1 expression inhibition after UVA irradiation (ELISA). Type of test: cell-based. The note with it: retinol, concentration not given; human dermal fibroblasts, UVA 6.3 J/cm^2, 24 hours. The procedure:
Human dermal fibroblasts were irradiated with UVA at an energy of 6.3 J/cm^2 by using a UV chamber. With respect to UV irradiation dose and culture time, conditions for maximizing an MMP expression amount in fibroblasts were established by preliminary experiments. A negative control was wrapped in silver foil and kept for the same period of time in the UVA environment. A UVA emission amount was measured by using a UV radiometer. The cells during the UVA irradiation were the same medium inoculated before without change and were exchanged with a medium containing the samples after UVA irradiation. The medium was collected after culturing for 24 hours, and 96 wells were coated with the medium. A primary antibody (MMP-1 (Ab-5) monoclonal antibody) was treated and reacted at 37° C. for 60 minutes. After an anti-mouse IgG (whole mouse, alkaline phosphatase conjugated), which was a secondary antibody, was reacted again for about 60 minutes, the alkaline phosphatase substrate solution (1 mg/ml p-nitrophenyl phosphate in diethanolamine buffer solution) was reacted at room temperature for 30 minutes, and then an absorbance was measured at 405 nm with a plate reader. As a control, a medium to which the sample was not added was used.
On the technique in general: ELISA stands for enzyme-linked immunosorbent assay.

The subject of test [1] is Human keratinocytes HaCaT cell lines. Put plainly: Intracellular active oxygen scavenging effect after UVB (DCFH-DA fluorescence). Type of test: cell-based. To be noted: sample 0.01 weight %, UVB 20 mJ/cm^2. The procedure:
Cell lines used in the experiment were the Human keratinocytes HaCaT cell lines distributed from Dr. Fusenig in German Cancer Research Center. […] Subsequently, 100 μl of HCSS treated for each concentration was added, and then the fluorescence of dichlorofluorescein (DCF) oxidized with active oxygen in the early stage was measured with a fluorescent plate reader (Ex; 485 nm, and Em; 530 nm). Subsequently, irradiation with UVB (20 mJ/cm^2) was performed, and the fluorescence after the sample treatment was measured by a fluorescent plate reader (Ex; 485 nm, and Em; 530 nm).

The subject of a further test is type 1 procollagen. Put plainly: Type 1 procollagen biosynthesis promoting effect (procollagen type-1 C-peptide EIA). Type of test: cell-based. The note with it: sample 0.001 weight %; human dermal fibroblasts, 24 hours. Here is the method:
Human dermal fibroblasts isolated from neonatal foreskin tissues were distributed from Modern Tissue Technology (MTT, Korea), and a 10% fetal bovine serum (FBS) was added to a medium of DMEM/F-12 (3:1) and cultured at the concentration of 1×10^4 cell/cm^2. At about 70% to 80% confluence, the cells were inoculated at a ratio of 1:3 and subcultured, and the cells subcultured for the third to fourth generations were used in the experiment.
For experiments to measure the amount of procollagen, the fibroblasts were cultured by more than 90% in a 48-well plate, and then each of […], and an amount of collagen isolated in the medium after 24 hours was measured by using a procollagen type-1 C-peptide EIA kit (MK101, Takara, Japan).

Test [2] can be described thus: Free radical scavenging activity by DPPH method. It counts as biochemical. The note with it: sample 0.1 weight %, 30 minutes at 37° C. The procedure:
Each sample was prepared at the concentration of 0.1% to measure DPPH free radical scavenging activity. Each sample at the above concentration was introduced to a 96-well plate, and DPPH produced with a 100 uM methanol solution was added thereto, such that the total volume of the solution became 200 μl. The resultant was left for 30 minutes at 37° C., and an absorbance was measured at 560 nm. The free radical scavenging activity (%) was calculated by Equation 2 below. Free radical scavenging activity (%)=100−(B/A)×100 <Equation 2> A: Absorbance of control wells in the absence of sample treatment B: Absorbance of experimental wells with sample treatment
(Loss of DPPH colour is used to gauge radical scavenging.)

The nature of test [3]: Antioxidant effect (active oxygen scavenging) by NBT method. It counts as biochemical. The note with it: sample 0.1 weight %, absorbance 560 nm. Here is the method: In order to measure the antioxidant effect, active oxygen generated by xanthine and xanthine oxidase was measured by the NBT method, and an effect of removing active oxygen by a test substance, that is, the active oxygen scavenging effect was evaluated. Active oxygen was generated by xanthine and xanthine oxidase, and this active oxygen reacts with nitro blue tetrazolium (NBT). […] 0.1 ml of a xanthine oxidase solution was added and quickly stirred, culture at 25° C. for 20 minutes was started, 0.1 ml of a 6 mM CuCl2 solution was added to stop the reaction, and an absorbance St at 560 nm was measured. In a blank test, the same operation was performed in the same manner except that distilled water was used instead of the sample solution, and an absorbance Bt was measured. In a blank of the sample solution, the same operation was performed in the same manner except that the distilled water was used instead of xanthine oxidase, and an absorbance […] was measured. Inhibition rate (%)=[1−(St−So)/(Bt−Bo)]×100 <Equation 1> St: Absorbance at 560 nm after enzyme reaction of sample solution Bt: Absorbance at 560 nm after enzyme reaction of blank test solution So: Absorbance at 560 nm before reaction of sample solution in the absence of enzyme Bo: Absorbance at 560 nm before reaction of blank test solution in the absence of enzyme

For the compound `CC1=C(/C=C/C(C)=C/C=C/C(C)=C/CO)C(C)(C)CCC1` [Retinol, retinol], the “MMP-1 expression inhibition rate (%)” value in the test with MMP-1 stood at 38%.

Regarding `O=C(O[C@@H]1Cc2c(O)cc(O)cc2O[C@@H]1c1cc(O)c(O)c(O)c1)c1cc(O)c(O)c(O)c1` [EGCG], the “Active oxygen scavenging effect (%)” value in test [1] came out at 45%.

Regarding TGF-β, in the test on type 1 procollagen, the “Procollagen biosynthesis promoting effect (%)” value is 35%.

In the case of `Cc1cc(C(C)(C)C)c(O)c(C(C)(C)C)c1` [BHT, butylated hydroxytoluene], the “Free radical scavenging activity (%)” value in test [2] worked out at 81%. In addition, in test [3], the “Antioxidant effect (active oxygen scavenging) (%)” value was determined as 87%.
